Consider one molecule from article PMC7311426, “An amphipathic peptide with antibiotic activity against multidrug-resistant Gram-negative bacteria” (Nature Communications, 2020).

In assay [1] the test system is E. coli DSA 443 ESBL. The experiment in a line: Murine urinary tract infection (UTI) model. The assay is classed as in vivo, E. coli in OF-1 mice. The conditions noted are these: Prism column statistics. How it is done: Peritonitis and UTI murine models were performed at the Department of Microbiology & Infection Control, Statens Serum Institute, Copenhagen, Denmark, under approval by the National Committee of Animal Ethics, Denmark, and adhered to the standards of EU Directive 2010/63/EU. The mouse pneumonia model was performed by Evotec Ltd, United Kingdom, under UK Home Office Licenses and with local ethical committee clearance. All animal studies were contracted by Adenium Biotech ApS.
Peptides were prepared in Ringer’s acetate pH 6.0 (vehicle) at 34 mg mL^−1. Comparator antibiotics included meropenem (Meronem®, AstraZeneca), polymyxin B sulfate (Sigma) and tobramycin (Novartis).
The E. coli UTI in vivo model was prepared using an E. coli DSA 443 ESBL strain, in neutropenic outbred OF-1 female mice (Charles River, France). Starting 4 days before inoculation mice were given drinking water with 5% glucose. On day 0 mice were anaesthetized and inoculated with 50 μL bacterial suspension (1 × 10^9 CFU mL^−1) of E. coli DSA 443 ESBL, via a catheter in the urethra into the bladder. On days 1 and 2, mice were treated i.v. with vehicle (n = 18) or with twice-daily administrations of 5 mg kg^−1 AA139 (n = 12) or 40 mg kg^−1 meropenem (n = 12). Urine samples were taken on days 1–3 and on day 3 mice were killed and urine, kidneys, and bladder were collected for CFU counts on agar.

Assay [2] has as its system E. coli DSA 443 ESBL. As to the kind of experiment: Murine urinary tract infection (UTI) model. As to conditions: for Day 3 Bladder, Mean Diff. Vehicle vs. Meropenem 40 mg/kg / Day 3 Urine, Mean Diff. Vehicle vs. Meropenem 40 mg/kg: Dunnett's multiple comparisons test; for Day 3 Urine, Mean 2 (group mean) / Mean Diff., Vehicle vs. treated / Mean 2 (group mean bacterial count): Meropenem 40 mg/kg; for Day 3 Urine, Mean 2 (group mean): n2 = 8; for Mean Diff., Vehicle vs. treated / Mean 2 (group mean bacterial count): UTI model, Day 3 Kidneys. The assay is classed as in vivo, E. coli in OF-1 mice.

Turning to `C[C@@H](O)[C@H]1C(=O)N2C(C(=O)O)=C(S[C@@H]3CN[C@H](C(=O)N(C)C)C3)[C@H](C)[C@H]12` [Meropenem, meropenem, reference compound], the “DAY 3 BLADDER, Median” value in assay [1] (ESBL E. coli DSA 443, Meropenem 40 mg kg-1, bladder, median of n = 12) was found to be 3.32. Further, the “DAY 3 KIDNEY, Mean” value in assay [1] (ESBL E. coli DSA 443, Meropenem 40 mg kg-1, kidney, mean of n = 12) was 1.644. Also, in assay [1] (ESBL E. coli DSA 443, Meropenem 40 mg kg-1, kidney, median of n = 12), the “DAY 3 KIDNEY, Median” value worked out at 1.4. Besides, the “DAY 3 URINE, Mean” value in assay [1] (ESBL E. coli DSA 443, Meropenem 40 mg kg-1, urine, mean of n = 11) came out at 1.229. Moreover, the “DAY 3 URINE, Median” value in assay [1] (ESBL E. coli DSA 443, Meropenem 40 mg kg-1, urine, median of n = 11) came to 1. For the same molecule, the “Day 3 Bladder, Mean Diff. Vehicle vs. Meropenem 40 mg/kg” value in assay [2] (Arenicin-3 study) turned out to be 2.654; in assay [2] (NZ17143 study), 2.624; in assay [2] (NZ17211 study), 4.176. Further, the “Day 3 Urine, Mean Diff. Vehicle vs. Meropenem 40 mg/kg” value in assay [2] (Arenicin-3 study) stood at 5.07; in assay [2] (NZ17143 study), 4.004; in assay [2] (NZ17211 study) it was 5.546. The “DAY 3 BLADDER, Mean” value in assay [2] (ESBL E. coli DSA 443, Meropenem 40 mg kg-1, bladder, day 3, Prism column statistics, mean of n = 12) stood at 3.523. Also, the entries for the “Day 3 Urine, Mean 2 (group mean)” value in assay [2] (Arenicin-3 study), in assay [2] (NZ17143 study) and in assay [2] (NZ17211 study) were 1.314, 1.812 and 1.325, respectively. In addition, the “Mean Diff., Vehicle vs. treated” value amounted to 0.4699 in assay [2] (Arenicin-3 experiment), 0.6355 in assay [2] (NZ17143 experiment) and 0.1396 in assay [2] (NZ17211 experiment). For the same molecule, the “Mean 2 (group mean bacterial count)” value in assay [2] (comparator arm of Arenicin-3 experiment) is listed as 2.023; in assay [2] (comparator arm of NZ17143 experiment), 1.446; in assay [2] (comparator arm of NZ17211 experiment) it was 2.631.
